Data: patent publication US20250152719A1, “FUSED IMIDE DERIVATIVE” (Chia Tai Tianqing Pharmaceutical Group Co., Ltd., priority 2021, published 2025)
Like-named read-outs stand apart in the source and are kept apart here. Each block holds one compound with its values, some of them ahead of it.

Tests used:
[1] = Mouse pharmacokinetics; assay type: in vivo, ICR mice; conditions: for clearance / half-life / AUC / Cmax: ICR, mouse, plasma; for AUC: read-out: AUC; for Cmax: read-out: Cmax
Method: ICR mice weighing 18-22 g were randomized into groups of 9 after 3-5 days of acclimatization and then intragastrically given the test compound solution at a dose of 10 mg/kg. Plasma samples to be tested were prepared by taking blood from the orbit at time points of 15 min, 30 min, 1 h, 2 h, 3 h, 4 h, 6 h, 8 h, 10 h, and 24 h. 20 μL of each plasma sample to be detected and a standard curve sample were taken, and an acetonitrile solution containing an internal standard was added. […] Pharmacokinetic parameters were fitted using a non-compartmental model (see Table 5).

[2] = test system: OCI-LY10 cells; test: Inhibitory activity on OCI-LY10 cell proliferation (CCK-8); assay type: cell-based
Method: (§1) OCI-LY10 cells in a good growth state were collected and added to a centrifuge tube, adjusted to a cell density of 1×10^5 cells/mL, and seeded in a 96-well plate (100 μL/well). The cells were incubated overnight in a cell incubator. Compounds were added using a nanoliter pipettor such that the final concentrations of the compounds were 5000 nM-0.31 nM; the addition was performed in duplicate, and meanwhile, a control was set. After another 72 h of incubation in the cell incubator, 10 μL of CCK-8 (CK04, PP799) was added. After 2.5 h of incubation in the cell incubator, absorbance values were detected at 450 nm using an Envision microplate reader, the four-parameter analysis was performed, the dose-response curves were fit, and IC50 was calculated.

[3] = test system: TMD8-BTK(C481S) cells; test: Inhibitory activity on TMD8-BTK(C481S) cell proliferation (CCK-8); assay type: cell-based; conditions: 72 h incubation
Method: as §1, with “TMD8-BTK(C481S)” for “OCI-LY10”, “8×10^4” for “1×10^5”, “4” for “2.5”

[4] = molecular target: BTK (Homo sapiens (Human), UniProt Q06187); test: BTK degradation in OCI-LY10 cells (Total-BTK HTRF kit); assay type: cell-based; conditions: 24 (or 6) h incubation; for DC50 / BTK degradation in OCI-LY10 cells Dmax: OCI-LY10 cells; for DC50: DC50 = concentration when degradation rate reaches 50%, read-out: OCI-LY10 cell BTK degradation DC50; for Dmax: OCI-Ly10, OCI-LY10 cells; for Dmax / BTK degradation in OCI-LY10 cells Dmax: maximum degradation rate
Sequence of BTK (Q06187 whole entry): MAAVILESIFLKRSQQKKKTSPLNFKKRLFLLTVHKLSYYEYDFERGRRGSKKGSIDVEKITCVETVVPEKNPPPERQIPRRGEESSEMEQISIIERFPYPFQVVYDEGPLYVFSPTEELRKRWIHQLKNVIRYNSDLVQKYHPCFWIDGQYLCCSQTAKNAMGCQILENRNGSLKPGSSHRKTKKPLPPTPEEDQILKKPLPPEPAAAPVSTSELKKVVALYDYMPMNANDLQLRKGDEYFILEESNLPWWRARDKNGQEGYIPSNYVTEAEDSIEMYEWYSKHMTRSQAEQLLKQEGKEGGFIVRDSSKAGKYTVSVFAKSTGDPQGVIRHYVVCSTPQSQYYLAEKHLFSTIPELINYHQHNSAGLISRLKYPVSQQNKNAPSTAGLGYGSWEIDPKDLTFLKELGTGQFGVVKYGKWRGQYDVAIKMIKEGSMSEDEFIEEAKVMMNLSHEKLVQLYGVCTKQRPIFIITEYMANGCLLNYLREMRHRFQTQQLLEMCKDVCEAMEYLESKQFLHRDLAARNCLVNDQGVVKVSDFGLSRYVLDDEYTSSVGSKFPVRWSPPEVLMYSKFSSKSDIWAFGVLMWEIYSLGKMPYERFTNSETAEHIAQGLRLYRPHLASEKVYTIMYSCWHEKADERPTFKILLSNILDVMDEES
Method: The detection was carried out using the Total-BTK Kits (cisbio, 63ADK064PEH), and 4× Supplemented Lysis buffer was prepared using the Blocking reagent stock solution (100×) and Lysis buffer stock solution (4×). Premixed antibody solutions were prepared using the Detection buffer, Total-BTK d2 antibody, and Total-BTK Eu Cryptate antibody.
OCI-LY10 cells in a good growth state were collected and added to a centrifuge tube, adjusted to a cell density of 4.17×10^6 cells/mL, and seeded in a 384-well plate (12 μL/well). The cells were incubated overnight in a cell incubator. Compounds were added using a nanoliter pipettor such that the final concentrations of the compounds were 100 nM-0.098 nM; the addition was performed in duplicate, and meanwhile, a control was set. After another 24 (or 6) h of incubation in the cell incubator, the 4× Supplemented Lysis buffer was added at 4 μL/well to lyse the cells. After the cells were shaken for 40 min at room temperature, the Premixed antibody solutions were added at 4 μL/well, and the cells were left to stand overnight at room temperature. Fluorescence values of the cells were detected at 665 nm/620 nm using an Envision microplate reader, the four-parameter analysis was performed, the dose-response curves were fit, and DC50 (the concentration of the drug when the degradation rate reaches 50%) and Dmax (the maximum degradation rate) were calculated.

[5] = test system: OCI-LY10-BTK(C481S) cells; test: Inhibitory activity on OCI-LY10-BTK(C481S) cell proliferation (CCK-8); assay type: cell-based; conditions: 72 h incubation, IC50 per method, unit inferred
Method: OCI-LY10(C481S) cells in the logarithmic growth phase were collected and added to a centrifuge tube, adjusted to a cell density of 5×10^4 cells/mL, and seeded in a 96-well plate (100 μL/well). Meanwhile, compounds were added using a nanoliter pipettor such that the final concentrations of the compounds were 5000 nM-0.31 nM; the addition was performed in duplicate, and meanwhile, a control was set. After another 72 h of incubation in the cell incubator, the detection reagent CCK-8 (manufacturer: Dojindo Laboratories, Beijing; 10 μL/well) was added. After 3 h of incubation in the cell incubator, absorbance values were detected at 450 nm using a PerkinElmer Envision microplate reader, the four-parameter analysis was performed, the dose-response curves were fit, and IC50 was calculated.

[6] = po, 10 mg/kg, Mouse i.g. 10 mpk
[7] = Homo sapiens, OCI-Ly10, 72 h incubation

- IC50 [5]: 0.62 nM
- BTK degradation in OCI-LY10 cells Dmax [4]: >90%
SMILES: CN1CCN([C@@H]2CCCN(c3cnc(C(N)=O)c(Nc4ccc5c(c4)CN(C4CN(CC6Cc7ccc8c(C9CCC(=O)NC9=O)noc8c7C6)C4)C5)n3)C2)C1=O (stereo partly shown) [Compound 47]

- IC50 [2, 7]: < 0.31 nM
- DC50 [4]: < 0.098 nM
- Dmax [4]: 96%
SMILES: CN1CCN([C@@H]2CCCN(c3cnc(C(N)=O)c(Nc4ccc(C5CCC6(CC5)CN(CC5Cc7ccc8c(C9CCC(=O)NC9=O)noc8c7C5)C6)cc4)n3)C2)C1=O (stereo partly shown) [Compound 53]
- IC50 [3]: 2.8 nM

- IC50 [2, 7]: < 0.31 nM
- Dmax [4]: > 90%
SMILES: NC(=O)c1ncc(N2CCCCC2)nc1Nc1ccc(N2CCC(N3CCc4ccc5c(C6CCC(=O)NC6=O)noc5c4CC3)CC2)cc1 (stereo not shown) [Compound 62]
- IC50 ([3]; 72 h): 8.2 nM

- IC50 [2, 7]: < 0.31 nM
- Dmax [4]: > 90%
SMILES: CN1CCN([C@@H]2CCCN(c3cnc(C(N)=O)c(Nc4ccc5c(c4)CCC4(CCN(CC6Cc7ccc8c(C9CCC(=O)NC9=O)noc8c7C6)CC4)O5)n3)C2)C1=O (stereo partly shown) [Compound 77]
- IC50 ([3]; 72 h): 23 nM

- IC50 [2, 7]: < 0.31 nM
- Dmax [4]: > 90%
SMILES: CN1CCN([C@@H]2CCCN(c3cnc(C(N)=O)c(Nc4ccc(C5CCN(C6Cc7ccc8c(C9CCC(=O)NC9=O)noc8c7C6)CC5)cc4)n3)C2)C1=O (stereo partly shown) [Compound 87]
- IC50 [3]: 11 nM

- clearance ([1]; iv, 1 mg/kg, Mouse i.v. 1 mpk): 1.72 mL/min/kg
- half-life ([1]; iv, 1 mg/kg, Mouse i.v. 1 mpk): 2.8 h
- AUC ([1]; iv, 1 mg/kg, Mouse i.v. 1 mpk): 9700 ng·h/mL
- half-life [1, 6]: 3 h
- AUC [1, 6]: 23700 ng·h/mL
- Cmax [1, 6]: 1880 ng/mL
- F ([1]; Mouse i.g. 10 mpk): 24.5%
- IC50 [2, 7]: < 0.31 nM
- Dmax [4]: > 90%
SMILES: CN1CCN([C@@H]2CCCN(c3cnc(C(N)=O)c(Nc4ccc(C5CCN(CC6Cc7ccc8c(C9CCC(=O)NC9=O)noc8c7C6)CC5)cc4)n3)C2)C1=O (stereo partly shown) [Compound 89]
- IC50 [3]: 20 nM

- IC50 ([5]; 72 h): 0.78 nM
- Dmax [4]: > 90%
SMILES: NC(=O)c1ncc(N2CCCCC2)nc1Nc1ccc(C2CCN(C[C@@H]3CCC(n4ccc5c6c(C7CCC(=O)NC7=O)noc6ccc54)C3)CC2)cc1 (stereo partly shown) [Compound 97]

- IC50 [2, 7]: < 0.31 nM
- Dmax [4]: > 90%
SMILES: CN1CCN([C@@H]2CCCN(c3cnc(C(N)=O)c(Nc4ccc(C5CCN([C@H]6C[C@@H](n7ccc8c9c(C%10CCC(=O)NC%10=O)noc9ccc87)C6)CC5)cc4)n3)C2)C1=O (stereo partly shown) [Compound 100]
- IC50 ([3]; 72 h): 0.57 nM

More lines, now with the values behind:

SMILES: CN1CCN([C@@H]2CCCN(c3cnc(C(N)=O)c(Nc4ccc(C5CCN(CC6CN(c7ccc8c(C9CCC(=O)NC9=O)noc8c7)C6)CC5)cc4)n3)C2)C1=O (stereo partly shown) [Compound 9]
- clearance ([1]; iv, 1 mg/kg, Mouse i.v. 1 mpk): 5.52 mL/min/kg
- half-life ([1]; iv, 1 mg/kg, Mouse i.v. 1 mpk): 1.5 h
- AUC ([1]; iv, 1 mg/kg, Mouse i.v. 1 mpk): 2970 ng·h/mL
- half-life [1, 6]: 2.6 h
- AUC [1, 6]: 13700 ng·h/mL
- Cmax [1, 6]: 1390 ng/mL
- F ([1]; Mouse i.g. 10 mpk): 46.10%
- IC50 [2, 7]: < 0.31 nM
- IC50 ([3]; 72 h): 1.2 nM
- DC50 [4]: < 0.098 nM
- Dmax [4]: 99%

SMILES: CN1CCN([C@@H]2CCCN(c3cnc(C(N)=O)c(Nc4ccc(C5CCC6(CC5)CN(CC5CN(c7ccc8c(C9CCC(=O)NC9=O)noc8c7)C5)C6)cc4)n3)C2)C1=O (stereo partly shown) [Compound 11]
- IC50 [2, 7]: < 0.31 nM
- IC50 ([3]; 72 h): 14 nM
- DC50 [4]: < 0.098 nM
- Dmax [4]: 99%

SMILES: CN1CCN([C@@H]2CCCN(c3cnc(C(N)=O)c(Nc4ccc(C5CCN(C[C@@H]6CCC(n7ccc8c9c(C%10CCC(=O)NC%10=O)noc9ccc87)C6)CC5)cc4)n3)C2)C1=O (stereo partly shown) [Compound 15]
- IC50 [5]: < 0.31 nM
- IC50 ([2]; 72 h incubation): < 0.31 nM
- DC50 [4]: < 0.098 nM
- BTK degradation in OCI-LY10 cells Dmax [4]: 100%

SMILES: CN1CCN([C@@H]2CCCN(c3cnc(C(N)=O)c(Nc4ccc(N5CCC(CN6Cc7ccc8c(C9CCC(=O)NC9=O)noc8c7C6)CC5)cc4)n3)C2)C1=O (stereo partly shown) [Compound 24]
- IC50 ([5]; 72 h): 0.5 nM
- IC50 [2, 7]: < 0.31 nM
- Dmax [4]: > 90%

SMILES: CN1CCN([C@@H]2CCCN(c3cnc(C(N)=O)c(Nc4ccc(N5CCC(CN6CCc7ccc8c(C9CCC(=O)NC9=O)noc8c7C6)CC5)cc4)n3)C2)C1=O (stereo partly shown) [Compound 26]
- IC50 ([5]; 72 h): 0.26 nM
- IC50 [2, 7]: < 0.31 nM
- Dmax [4]: > 90%

SMILES: CN1CCN([C@@H]2CCCN(c3cnc(C(N)=O)c(Nc4ccc5c(c4)CCN(CC4Cc6ccc7c(C8CCC(=O)NC8=O)noc7c6C4)C5)n3)C2)C1=O (stereo partly shown) [Compound 40]
- IC50 ([5]; 72 h): 0.51 nM
- Dmax [4]: > 90%

SMILES: CN1CCN([C@@H]2CCCN(c3cnc(C(N)=O)c(Nc4ccc5c(c4)CN(CC4Cc6ccc7c(C8CCC(=O)NC8=O)noc7c6C4)C5)n3)C2)C1=O (stereo partly shown) [Compound 44]
- IC50 ([5]; 72 h): 0.56 nM
- Dmax [4]: > 90%

SMILES: CN1CCN([C@@H]2CCCN(c3cnc(C(N)=O)c(Nc4ccc5c(c4)CN(C4CN(CC6Cc7ccc8c(C9CCC(=O)NC9=O)noc8c7C6)C4)C5)n3)C2)C1=O (stereo partly shown) [Compound 46]
- IC50 ([5]; 72 h): 0.66 nM
- Dmax [4]: > 90%

SMILES: CN1CCN([C@@H]2CCCN(c3cnc(C(N)=O)c(Nc4ccc(C5CC6CCCC(C5)N6C5Cc6ccc7c(C8CCC(=O)NC8=O)noc7c6C5)cc4)n3)C2)C1=O (stereo partly shown) [Compound 79]
- IC50 [2, 7]: < 0.31 nM
- IC50 ([3]; 72 h): 12 nM
- Dmax [4]: > 90%

SMILES: CN1CCN([C@@H]2CCCN(c3cnc(C(N)=O)c(Nc4ccc(C5CC6CCCC(C5)N6C5Cc6ccc7c(C8CCC(=O)NC8=O)noc7c6C5)cc4)n3)C2)C1=O (stereo partly shown) [Compound 80]
- IC50 ([2]; 72 h incubation): < 0.31 nM
- IC50 [3]: 11 nM
- BTK degradation in OCI-LY10 cells Dmax [4]: >90%

SMILES: CN1CCN([C@@H]2CCCN(c3cnc(C(N)=O)c(Nc4ccc(C5CC6CCCC(C5)N6CC5Cc6ccc7c(C8CCC(=O)NC8=O)noc7c6C5)cc4)n3)C2)C1=O (stereo partly shown) [Compound 81]
- IC50 [2, 7]: < 0.31 nM
- IC50 ([3]; 72 h): 11 nM
- Dmax [4]: > 90%

SMILES: CN1CCN([C@@H]2CCCN(c3cnc(C(N)=O)c(Nc4ccc(C5CC6CCCC(C5)N6CC5Cc6ccc7c(C8CCC(=O)NC8=O)noc7c6C5)cc4)n3)C2)C1=O (stereo partly shown) [Compound 82]
- IC50 ([2]; 72 h incubation): < 0.31 nM
- IC50 [3]: 11 nM
- BTK degradation in OCI-LY10 cells Dmax [4]: >90%
